Among the data in ChEMBL document CHEMBL1131668, “Purin-8-ones as corticotropin-releasing hormone (CRH-R1) receptor antagonists” (Bioorg Med Chem Lett, 1999) are Ki values, retold here.

The assay deals with T1, Corticotropin-releasing factor receptor 1 (Homo sapiens, UniProt P34998).
T1 sequence (P34998 whole entry): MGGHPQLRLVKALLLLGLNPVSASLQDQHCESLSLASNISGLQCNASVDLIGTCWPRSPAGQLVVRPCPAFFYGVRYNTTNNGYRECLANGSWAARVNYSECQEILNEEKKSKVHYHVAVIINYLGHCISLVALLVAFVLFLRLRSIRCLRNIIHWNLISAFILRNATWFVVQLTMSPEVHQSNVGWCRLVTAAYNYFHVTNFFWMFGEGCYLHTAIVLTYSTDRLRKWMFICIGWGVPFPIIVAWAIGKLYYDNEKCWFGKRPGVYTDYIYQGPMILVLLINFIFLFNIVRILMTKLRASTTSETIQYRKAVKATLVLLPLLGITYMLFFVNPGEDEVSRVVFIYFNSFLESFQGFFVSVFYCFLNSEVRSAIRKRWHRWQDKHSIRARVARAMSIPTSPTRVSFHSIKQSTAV
The assay can be described thus: Binding affinity for transfected human Corticotropin releasing factor receptor expressed in HEK 293E cells using [125I]TYR-oCRH as the displaced radioligand. In kind it is cell-based, HEK293.
With `CCCCN(CC)c1cc(C)nc2c1n(C)c(=O)n2-c1ccc(C(C)C)cc1Br`, the Ki (usually the dissociation constant of the complex between target and ligand, obtained from inhibition or displacement) came out at 3 nM.
Compound `COCCN(CC1CC1)c1nc(C)nc2c1n(C)c(=O)n2-c1ccc(C(C)C)cc1Br` came in with a Ki of 12.2 nM.
`COCCN(CCOC)c1nc(C)nc2c1n(C)c(=O)n2-c1ccc(C(C)C)cc1Br` had an inhibition constant Ki of 130 nM.
The same measure for `CCN(CCOC)c1nc(C)nc2c1n(C)c(=O)n2-c1ccc(C(C)C)cc1Br`: 47.9 nM.
In turn, `CCCCN(CC)c1nc(C)nc2c1n(C)c(=O)n2-c1c(C)cc(C)nc1C` showed an inhibition constant (Ki) of 124 nM.
The figure for `CCCN(CC1CC1)c1nc(C)nc2c1n(C)c(=O)n2-c1c(C)cc(C)nc1C` is 113 nM; for `CCCN(CCC)c1nc(C)nc2c1n(C)c(=O)n2-c1c(C)cc(C)nc1C` it is 259 nM; for `CCCCN(CC)c1nc(C)nc2c1n(CC1CC1)c(=O)n2-c1ccc(C(C)C)cc1Br` it is 117 nM.
The compound `CCCCN(CC)c1nc(C)cc2c1n(C)c(=O)n2-c1ccc(C(C)C)cc1Br` registered a Ki of 463 nM.
For the compound `COCCN(CCOC)c1nc(C)nc2c1n(C)c(=O)n2-c1c(C)cc(C)cc1C`, the Ki was determined as 698 nM.
The figure for `CCC(COC)Nc1nc(C)nc2c1n(C)c(=O)n2-c1ccc(C(C)C)cc1Br` (configuration not stated) is 42.8 nM; for `CCCCC(CC)Nc1nc(C)nc2c1n(C)c(=O)n2-c1ccc(C(C)C)cc1Br` (configuration not stated) it is 15.1 nM.
`CCCCN(CC)c1nc(C)nc2c1nc(OCC1CC1)n2-c1ccc(C(C)C)cc1Br` yielded a Ki of 31.1 nM.
As to `CCCCN(CC)c1nc(C)nc2c1nc(N1CCOCC1)n2-c1ccc(C(C)C)cc1Br`, affinity was put at a Ki of 345 nM.
The compound `CCCCN(CC)c1nc(C)nc2c1nc(OC)n2-c1ccc(C(C)C)cc1Br` yielded a Ki of 1.5 nM. Compared with the last compound, the Ki is about 230-fold lower.
In turn, `COCCN(Cc1ccccc1)c1nc(C)nc2c1n(C)c(=O)n2-c1ccc(C(C)C)cc1Br` displayed a Ki of 26.2 nM.
The figure for `CCCCN(CC)c1nc(C)nc2c1nc(Cl)n2-c1ccc(C(C)C)cc1Br` is 1.5 nM; for `CCCCC(CC)Nc1nc(C)nc2c1n(C)c(=O)n2-c1c(C)cc(C)cc1C` (configuration not stated) it is 17.4 nM.
Take `CCCN(CC1CC1)c1nc(C)nc2c1n(C)c(=O)n2-c1c(C)cc(C)cc1C`: affinity was put at a Ki of 6.1 nM.
With `CCCCN(CC)c1nc(C)nc2c1nc(O)n2-c1ccc(C(C)C)cc1Br`, the Ki was 890 nM.
As for `CCCN(CCC)c1nc(C)nc2c1n(C)c(=O)n2-c1ccc(C(C)C)cc1Br`, the Ki amounted to 7.6 nM.
The figure for `CCCN(CC1CC1)c1nc(C)nc2c1n(C)c(=O)n2-c1ccc(C(C)C)cc1Br` is 5.7 nM.
